From patent US10329304B2, “Compounds and methods for inhibition of hedgehog signaling and phosphodiesterase” (Vanderbilt University, priority 2014, dated 2019)

Assays:
RSV = RSV infection in mice (body weight, lung plaque assay); conditions: 20 mg/kg IP 3× daily
mouse cardiomyocytes [1] = test: Contractility of isolated mouse cardiomyocytes; format: cell-based
Excerpt: (§1) To observe whether the effects of eggmanone administration are cardiomyocyte specific or due to off target effects, the contractility of individual mouse cardiomyocytes and the tone of ascending/descending aorta was observed. In mouse cardiomyocytes, Egm caused a 50% increase in contractility over vehicle control (FIG. 32).

Daoy cells = test: Daoy cell proliferation (PH3 staining) and apoptosis (TUNEL); format: cell-based, human; conditions: 10 μM, 48-hours
mouse cardiomyocytes [2] = test: Calcium handling in isolated mouse cardiomyocytes; format: cell-based; conditions: 10 μM
Excerpt: as §1

[3] = tested on: Bovine Viral Diarrhea Virus; test: BVDV CPE assay; format: cell-based
Protocol: Provided in FIG. 37 are the results from BVDV (Bovine Viral Diarrhea Virus, surrogate for Hepatitis C virus) CPE ([…]) testing done. The assay was repeated with […] (a PDE4B and PDE4D inhibitor). Hi913 (our prototypic PDE4 inhibitor) was tested in half-log concentrations ranging from 100 μM to 0.33 μM. As the stock solution of […] was 10 mM, this meant that the final DMSO concentrations for the highest Hi913 concentrations were 1%, 0.33%, and 0.1%. The normal final DMSO concentrations used is 0.1%, so additional DMSO controls of 1% and 0.33% were included. The Hi913 data for the highest 3 concentrations is normalized to the respective DMSO concentrations. […] The outlier effects at 100 μM are probably due to cytotoxicity at the high drug concentration.

panel of 442 kinases = test: Kinase profiling assays (DiscoverRx, phage display model); format: binding
Protocol: (§2) Profiling assays were not performed in-house. Compounds were shipped to the following companies for possible target identification: Kinase profiling assays were performed by DiscoverRx (San Diego, Calif.) using a phage display model; GPCR profiling assays were performed by Millipore (St. Louis, Mo.) using in cells expressing Gα15, a promiscuous G protein that enhances GPCR coupling to downstream Ca^2+ signaling pathways; phosphatase profiling assay was performed by Millipore (Dundee, UK).

Influenza = Influenza antiviral effect; format: cell-based
panel of 158 GPCRs = test: Millipore-GPCR Panel (cells expressing Gα15, Ca2+ signaling); format: cell-based
Protocol: as §2

panel of 21 phosphatases = test: Phosphatase profiling assay (Millipore); format: biochemical, human
Protocol: as §2

cAMP = test: FRET-based cAMP sensors in NIH3T3 cells; format: cell-based; conditions: 2 μM
Excerpt: To visualize changes in cAMP concentrations in individual cells and cellular regions, we utilized two distinct FRET (fluorescence resonance energy transfer)-based cAMP sensors: the Epac-FRET sensor (mTurquoiseΔ-Epac(CD, ΔDEP)-cp173 Venus-Venus)^35, which detects cytosolic cAMP concentration and the PKA-based cAMP sensor (PKAC-YFP and PKARII-CFP combination), which has been used to document changes in local cAMP levels in the centrosome and basal body.

NIH3T3 cells = test: Cell viability of parental NIH3T3 cells; format: cell-based
Dengue = Dengue viral CPE assay; format: cell-based
Excerpt: The small molecule PDE4 inhibitors of the presently disclosed subject matter are actively anti-viral in viral CPE (cytopathic effect) assays versus RSV (respiratory syncytial virus), Dengue (1 experiment), and BVDV (bovine viral diarrhea virus, surrogate for human hepatitis C virus). Of note, PDE4 inhibitors are now approved for COPD, for which RSV may be an exacerbating factor).

PDE2A = molecular target: T1, PDE2A (Homo sapiens, UniProt O00408); test: In vitro PDE assay; format: biochemical
T1 construct: purchased BPS Biosciences (San Diego, Calif.)
Method in brief: (§3)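 Fluorescence polarization readout: FAM-AMP formed from 100 nM FAM-cAMP binds nano-bead agent (60 min) and is read at ex 485/em 528 nm. Enzyme reactions ran 60 min at room temperature in duplicate, Tris-HCl pH 7.4 buffer with 10 mM MgCl2 and 0.05% Tween 20, compound in 1% final DMSO.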

PDE5A1 = molecular target: T2, PDE5A1 (Homo sapiens, UniProt O76074); test: In vitro PDE assay; format: biochemical
T2 construct: purchased BPS Biosciences (San Diego, Calif.)
Method in brief: as §3

PDE3A = molecular target: T3, PDE3A (Homo sapiens, UniProt Q14432); test: In vitro PDE assay; format: biochemical
T3 construct: purchased BPS Biosciences (San Diego, Calif.)
Method in brief: as §3

PDE9A1 = molecular target: T4, PDE9A1 (Homo sapiens, UniProt O76083); test: In vitro PDE assay; format: biochemical
T4 construct: purchased BPS Biosciences (San Diego, Calif.)
Method in brief: as §3

PDE7A1 = molecular target: T5, PDE7A1 (Homo sapiens, UniProt Q13946); test: In vitro PDE assay; format: biochemical
T5 construct: purchased BPS Biosciences (San Diego, Calif.)
Method in brief: as §3

PDE6C = molecular target: T6, PDE6C (Homo sapiens, UniProt P51160); test: In vitro PDE assay; format: biochemical
T6 construct: purchased BPS Biosciences (San Diego, Calif.)
Method in brief: as §3

PDE1A1 = molecular target: T7, PDE1A1 (Homo sapiens, UniProt P54750); test: In vitro PDE assay; format: biochemical
T7 construct: purchased BPS Biosciences (San Diego, Calif.)
Method in brief: as §3

PDE11A4 = molecular target: T8, PDE11A4 (Homo sapiens, UniProt Q9HCR9); test: In vitro PDE assay; format: biochemical
T8 construct: purchased BPS Biosciences (San Diego, Calif.)
Method in brief: as §3

PDE10A2 = molecular target: T9, PDE10A2 (Homo sapiens, UniProt Q9Y233); test: In vitro PDE assay; format: biochemical
T9 construct: purchased BPS Biosciences (San Diego, Calif.)
Method in brief: as §3

PDE8A1 = molecular target: T10, PDE8A1 (Homo sapiens, UniProt O60658); test: In vitro PDE assay; format: biochemical
T10 construct: purchased BPS Biosciences (San Diego, Calif.)
Method in brief: as §3

T1 sequence (O00408 whole entry): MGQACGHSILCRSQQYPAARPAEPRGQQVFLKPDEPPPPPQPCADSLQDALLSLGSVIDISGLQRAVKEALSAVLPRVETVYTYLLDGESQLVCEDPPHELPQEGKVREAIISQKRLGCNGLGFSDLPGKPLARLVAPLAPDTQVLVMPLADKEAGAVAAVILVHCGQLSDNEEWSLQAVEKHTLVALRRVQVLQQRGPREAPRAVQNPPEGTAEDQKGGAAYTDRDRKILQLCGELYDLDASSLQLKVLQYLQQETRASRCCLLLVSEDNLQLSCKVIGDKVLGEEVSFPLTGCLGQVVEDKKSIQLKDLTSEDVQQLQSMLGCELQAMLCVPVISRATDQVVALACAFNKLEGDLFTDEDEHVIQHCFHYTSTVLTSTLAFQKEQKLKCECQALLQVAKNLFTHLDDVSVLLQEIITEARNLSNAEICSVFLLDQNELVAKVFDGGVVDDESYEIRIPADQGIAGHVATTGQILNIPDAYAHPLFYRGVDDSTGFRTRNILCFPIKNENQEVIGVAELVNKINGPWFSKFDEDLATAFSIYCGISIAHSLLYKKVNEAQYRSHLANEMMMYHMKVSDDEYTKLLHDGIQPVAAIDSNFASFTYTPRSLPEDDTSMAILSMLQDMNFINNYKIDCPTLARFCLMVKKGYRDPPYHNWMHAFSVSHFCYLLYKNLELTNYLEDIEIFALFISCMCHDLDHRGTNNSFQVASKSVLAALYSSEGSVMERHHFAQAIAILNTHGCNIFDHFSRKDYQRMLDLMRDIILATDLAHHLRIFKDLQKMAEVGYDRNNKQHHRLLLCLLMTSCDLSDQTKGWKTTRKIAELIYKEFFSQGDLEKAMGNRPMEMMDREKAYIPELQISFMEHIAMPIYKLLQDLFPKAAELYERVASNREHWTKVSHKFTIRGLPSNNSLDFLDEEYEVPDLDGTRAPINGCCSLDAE
T3 sequence (Q14432 whole entry): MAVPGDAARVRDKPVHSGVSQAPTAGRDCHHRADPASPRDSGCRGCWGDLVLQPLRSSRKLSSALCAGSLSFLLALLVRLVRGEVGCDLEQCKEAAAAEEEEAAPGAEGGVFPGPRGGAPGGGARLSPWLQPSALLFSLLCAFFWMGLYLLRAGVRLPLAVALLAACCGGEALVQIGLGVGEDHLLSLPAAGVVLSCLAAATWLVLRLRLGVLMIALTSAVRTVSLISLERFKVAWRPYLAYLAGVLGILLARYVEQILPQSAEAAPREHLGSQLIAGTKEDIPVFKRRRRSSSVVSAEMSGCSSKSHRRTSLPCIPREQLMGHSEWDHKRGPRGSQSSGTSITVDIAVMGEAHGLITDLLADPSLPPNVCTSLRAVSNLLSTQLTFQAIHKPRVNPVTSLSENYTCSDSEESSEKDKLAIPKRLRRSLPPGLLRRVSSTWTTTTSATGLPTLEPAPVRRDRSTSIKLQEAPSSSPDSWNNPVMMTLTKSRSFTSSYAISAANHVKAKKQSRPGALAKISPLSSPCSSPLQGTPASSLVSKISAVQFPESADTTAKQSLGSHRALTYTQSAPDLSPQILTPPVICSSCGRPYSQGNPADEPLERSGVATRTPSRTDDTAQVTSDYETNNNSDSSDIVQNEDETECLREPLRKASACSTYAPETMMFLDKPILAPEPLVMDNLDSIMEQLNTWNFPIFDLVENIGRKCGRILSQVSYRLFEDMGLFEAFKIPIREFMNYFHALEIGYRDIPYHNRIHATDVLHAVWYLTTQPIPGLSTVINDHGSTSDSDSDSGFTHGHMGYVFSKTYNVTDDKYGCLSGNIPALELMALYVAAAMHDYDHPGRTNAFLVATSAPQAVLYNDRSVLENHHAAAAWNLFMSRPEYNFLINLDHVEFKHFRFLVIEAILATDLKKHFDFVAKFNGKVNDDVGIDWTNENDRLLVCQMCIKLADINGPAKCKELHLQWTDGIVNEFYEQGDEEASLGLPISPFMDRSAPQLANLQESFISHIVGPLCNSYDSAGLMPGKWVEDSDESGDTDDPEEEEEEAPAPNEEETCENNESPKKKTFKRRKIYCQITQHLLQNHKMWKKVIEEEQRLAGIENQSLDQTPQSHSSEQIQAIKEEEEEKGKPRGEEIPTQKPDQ
T6 sequence (P51160 whole entry): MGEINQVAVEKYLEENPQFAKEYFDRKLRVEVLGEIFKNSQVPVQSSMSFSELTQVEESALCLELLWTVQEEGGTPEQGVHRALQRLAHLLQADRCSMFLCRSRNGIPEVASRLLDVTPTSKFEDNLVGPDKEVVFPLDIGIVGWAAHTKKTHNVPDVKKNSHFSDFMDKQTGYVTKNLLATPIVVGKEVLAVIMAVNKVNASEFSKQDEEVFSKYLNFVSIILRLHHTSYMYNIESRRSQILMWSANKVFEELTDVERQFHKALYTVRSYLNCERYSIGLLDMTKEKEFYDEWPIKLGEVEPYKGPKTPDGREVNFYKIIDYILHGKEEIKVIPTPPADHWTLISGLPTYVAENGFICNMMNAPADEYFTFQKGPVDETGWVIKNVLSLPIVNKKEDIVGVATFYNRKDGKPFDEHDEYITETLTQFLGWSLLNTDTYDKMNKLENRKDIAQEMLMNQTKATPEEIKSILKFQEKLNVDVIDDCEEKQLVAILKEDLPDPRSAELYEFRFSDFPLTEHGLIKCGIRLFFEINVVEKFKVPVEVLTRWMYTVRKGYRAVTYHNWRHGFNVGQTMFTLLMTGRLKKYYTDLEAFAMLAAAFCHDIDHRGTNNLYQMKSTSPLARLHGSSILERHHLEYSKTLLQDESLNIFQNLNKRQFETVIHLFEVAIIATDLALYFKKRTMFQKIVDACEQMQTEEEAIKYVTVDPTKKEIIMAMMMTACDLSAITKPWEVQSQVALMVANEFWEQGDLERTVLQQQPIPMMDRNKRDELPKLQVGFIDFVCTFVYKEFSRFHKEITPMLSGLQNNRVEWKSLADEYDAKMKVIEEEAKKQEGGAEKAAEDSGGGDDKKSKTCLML
T4 sequence (O76083 whole entry): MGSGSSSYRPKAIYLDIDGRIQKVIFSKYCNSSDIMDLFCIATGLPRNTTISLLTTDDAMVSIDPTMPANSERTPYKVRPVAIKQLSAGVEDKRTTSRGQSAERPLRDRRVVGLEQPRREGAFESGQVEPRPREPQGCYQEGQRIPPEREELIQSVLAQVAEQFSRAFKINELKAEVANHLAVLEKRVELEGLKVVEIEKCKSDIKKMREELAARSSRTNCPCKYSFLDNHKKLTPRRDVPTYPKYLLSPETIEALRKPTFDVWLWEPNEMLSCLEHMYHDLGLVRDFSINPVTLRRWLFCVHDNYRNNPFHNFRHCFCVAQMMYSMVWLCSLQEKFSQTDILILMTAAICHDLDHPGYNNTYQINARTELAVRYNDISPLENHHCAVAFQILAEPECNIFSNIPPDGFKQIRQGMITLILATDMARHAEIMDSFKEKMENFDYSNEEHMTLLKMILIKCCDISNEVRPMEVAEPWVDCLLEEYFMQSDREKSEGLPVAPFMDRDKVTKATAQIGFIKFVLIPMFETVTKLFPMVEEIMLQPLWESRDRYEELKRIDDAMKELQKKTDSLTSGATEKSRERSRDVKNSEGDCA
T8 sequence (Q9HCR9 whole entry): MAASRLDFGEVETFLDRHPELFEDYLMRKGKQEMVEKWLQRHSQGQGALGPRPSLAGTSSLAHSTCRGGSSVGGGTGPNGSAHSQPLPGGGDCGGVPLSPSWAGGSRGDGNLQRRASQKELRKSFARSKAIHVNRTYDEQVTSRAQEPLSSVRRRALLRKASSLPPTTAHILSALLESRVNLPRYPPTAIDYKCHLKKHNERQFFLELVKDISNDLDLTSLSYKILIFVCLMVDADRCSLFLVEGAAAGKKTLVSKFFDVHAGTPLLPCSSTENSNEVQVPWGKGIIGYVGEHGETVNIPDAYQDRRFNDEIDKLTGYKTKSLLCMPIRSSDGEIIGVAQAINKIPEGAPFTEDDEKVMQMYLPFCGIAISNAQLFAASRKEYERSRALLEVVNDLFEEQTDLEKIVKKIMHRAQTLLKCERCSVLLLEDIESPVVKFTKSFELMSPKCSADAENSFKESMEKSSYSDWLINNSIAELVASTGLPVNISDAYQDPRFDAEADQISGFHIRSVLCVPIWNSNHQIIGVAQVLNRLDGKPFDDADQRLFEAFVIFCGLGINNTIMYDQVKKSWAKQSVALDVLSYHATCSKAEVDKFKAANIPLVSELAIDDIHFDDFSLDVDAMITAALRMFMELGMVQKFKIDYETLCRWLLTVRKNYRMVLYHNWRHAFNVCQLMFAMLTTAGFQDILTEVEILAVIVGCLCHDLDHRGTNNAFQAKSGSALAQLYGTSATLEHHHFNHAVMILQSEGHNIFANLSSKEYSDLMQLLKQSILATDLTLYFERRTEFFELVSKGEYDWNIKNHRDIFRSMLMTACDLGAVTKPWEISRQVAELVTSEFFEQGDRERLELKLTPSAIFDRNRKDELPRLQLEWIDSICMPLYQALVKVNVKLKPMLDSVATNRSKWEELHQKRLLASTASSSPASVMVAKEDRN
T7 sequence (P54750 1-529 isoform P54750-6): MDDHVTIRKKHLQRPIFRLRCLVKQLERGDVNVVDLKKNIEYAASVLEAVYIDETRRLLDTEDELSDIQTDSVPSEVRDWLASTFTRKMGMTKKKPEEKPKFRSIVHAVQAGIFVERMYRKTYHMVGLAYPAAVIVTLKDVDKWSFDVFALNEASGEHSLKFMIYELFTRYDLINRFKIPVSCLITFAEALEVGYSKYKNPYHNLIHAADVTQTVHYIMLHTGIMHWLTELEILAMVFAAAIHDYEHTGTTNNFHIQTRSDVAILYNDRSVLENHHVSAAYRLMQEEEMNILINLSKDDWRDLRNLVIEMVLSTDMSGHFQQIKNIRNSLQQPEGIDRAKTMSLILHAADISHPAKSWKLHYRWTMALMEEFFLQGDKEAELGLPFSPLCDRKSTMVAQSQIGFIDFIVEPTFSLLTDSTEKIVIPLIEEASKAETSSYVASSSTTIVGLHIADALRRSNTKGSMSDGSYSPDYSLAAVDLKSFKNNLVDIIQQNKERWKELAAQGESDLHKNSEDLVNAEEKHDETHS

C=C(C)Cn1c(SCC(=O)c2cccs2)nc2sc3c(c2c1=O)CCCC3 [EGM, Eggmanone]
Normalized body weight (RSV): slightly lower than that with control | Lung viral titer (plaque assay) (RSV; day 3): significantly reduced viral titer at day 3 | increase in contractility over vehicle control (mouse cardiomyocytes [1]): 50% | Apoptosis (TUNEL staining) (Daoy cells): increased apoptosis | Cell proliferation (phospho-histone H3 staining) (Daoy cells): decreased cell proliferation | Calcium handling (mouse cardiomyocytes [2]): not associated with alterations in calcium handling

C=C(C)Cn1c(SCC(=O)c2cccs2)nc2sc3c(c2c1=O)CCCC3 [Eggmanone, 3-(2-methylallyl)-2-((2-oxo-2-(thiophen-2-yl)ethyl)thio)-5,6,7,8-tetrahydrobenzo[4,5]thieno[2,3-d]pyrimidine-4(3H)-one]
Antiviral effect on BVDV [3]: has antiviral effects | agonist or antagonist activity (panel of 442 kinases): did not exhibit significant agonist or antagonist activity | significant inhibition (panel of 442 kinases): > 10 µM | Antiviral effect on Influenza (Influenza): has antiviral effects | agonist or antagonist activity (panel of 158 GPCRs): did not exhibit significant agonist or antagonist activity | significant inhibition (panel of 158 GPCRs): > 10 µM | agonist or antagonist activity (panel of 21 phosphatases): did not exhibit significant agonist or antagonist activity | significant inhibition (panel of 21 phosphatases): > 10 µM | Cytosolic FRET signal (Epac-FRET sensor) (cAMP): had no effect on the cytosolic FRET signal | cAMP levels by PKA-based cAMP sensor (cAMP): increased cAMP levels only at discrete regions | Viability of NIH3T3 cells (NIH3T3 cells): had no effect on parental NIH3T3 cells | Antiviral effect on Dengue (Dengue): has antiviral effects | IC50 (PDE2A): > 50 µM | inhibition at 50 µM (PDE5A1): < 10% | IC50 (PDE3A): > 50 µM | inhibition at 50 µM (PDE9A1): < 10% | inhibition at 50 µM (PDE7A1): < 10% | inhibition at 50 µM (PDE6C): < 10% | inhibition at 50 µM (PDE1A1): < 10% | IC50 (PDE11A4): > 50 µM | inhibition at 50 µM (PDE10A2): < 10% | inhibition at 50 µM (PDE8A1): < 10%
